Reference: patent US20140221485A1, “LIPOPHILIC DOPAMINE DERIVATIVES AND THEIR USE” (NOVALIQ GMBH, priority 2011, published 2014)
“Also recorded” adds a separate entry of the source.

Legend:
MANF = test: UPR target gene transcription by qPCR in endothelial cells; format: cell-based; conditions: 100 μM, 24 h
Description: (§1) Endothelial cells were stimulated for 24 h with 100 μM of NOD, NOT, BB, BBNB or BBNO (see Table 1 for compound structures). RNA was isolated from each sample and transcribed into cDNA. Expression of selected UPR target genes was assessed by qPCR.

HSPA5 = test: as above; format: cell-based; conditions: 100 μM, 24 h
Description: as §1

DDIT3 = test: as above; format: cell-based; conditions: 100 μM, 24 h
Description: as §1

HYOU1 = test: as above; format: cell-based; conditions: 100 μM, 24 h
Description: as §1

[1] = system: Human umbilical vein endothelial cells (HUVEC); test: Hypothermic preservation of HUVEC, LDH release; format: cell-based; conditions: 100 μM for 1 h, then 24 hrs on ice in UW solution
Description: The hypothermic preservation properties of NOD, A-NOD and N-pivaloyl dopamine (also referred to as NPD, or N-[2-(3,4-dihydroxyphenyl)ethyl]tert-butylamide) were examined. Human umbilical vein endothelial cells (HUVEC) were seeded in 24 well plates and grown until confluence. Hereafter, HUVEC were stimulated for 1 h with 100 μM of NOD, A-NOD or NPD. Cells that were not treated (Md) served as control. The medium was aspirated and the cells were stored for 24 hrs on ice in University of Wisconsin (UW) solution. Cell damage was assessed by measuring lactate dehydrogenase (LDH) release, using a commercially available LDH release assay (Roche). To this end, 100 μl of supernatant was added to 100 μl of assay reaction mixture. The plates were incubated for 30 minutes and the absorption (OD490) was assessed. All experimental conditions were performed in triplicate.
An increase in LDH activity correlates with the amount of dead or damaged cells.

UPR target genes = test: UPR gene transcription of endothelial cells under normoxic and hypoxic conditions (qPCR); format: cell-based; conditions: 100 μM, 24 h
Description: Endothelial cells were cultured for 24 h under normoxic conditions in the presence or absence of 100 μM of NOD or NOT. Cells that were cultured in the absence of either compounds (medium) served as a control. In addition, the cells were cultured under hypoxic conditions for 24 h in the presence or absence of 100 μM NOD or NOT. RNA was isolated and transcribed into cDNA. The expression of a selected set of UPR target genes was assessed by qPCR.

TRPV-1-receptors = TRPV-1-receptors (Homo sapiens, UniProt Q8NER1); conditions: Greffrath et al. 2011; results in desensitization of the receptor; cited from earlier work
Sequence of TRPV-1-receptors (Q8NER1 whole entry): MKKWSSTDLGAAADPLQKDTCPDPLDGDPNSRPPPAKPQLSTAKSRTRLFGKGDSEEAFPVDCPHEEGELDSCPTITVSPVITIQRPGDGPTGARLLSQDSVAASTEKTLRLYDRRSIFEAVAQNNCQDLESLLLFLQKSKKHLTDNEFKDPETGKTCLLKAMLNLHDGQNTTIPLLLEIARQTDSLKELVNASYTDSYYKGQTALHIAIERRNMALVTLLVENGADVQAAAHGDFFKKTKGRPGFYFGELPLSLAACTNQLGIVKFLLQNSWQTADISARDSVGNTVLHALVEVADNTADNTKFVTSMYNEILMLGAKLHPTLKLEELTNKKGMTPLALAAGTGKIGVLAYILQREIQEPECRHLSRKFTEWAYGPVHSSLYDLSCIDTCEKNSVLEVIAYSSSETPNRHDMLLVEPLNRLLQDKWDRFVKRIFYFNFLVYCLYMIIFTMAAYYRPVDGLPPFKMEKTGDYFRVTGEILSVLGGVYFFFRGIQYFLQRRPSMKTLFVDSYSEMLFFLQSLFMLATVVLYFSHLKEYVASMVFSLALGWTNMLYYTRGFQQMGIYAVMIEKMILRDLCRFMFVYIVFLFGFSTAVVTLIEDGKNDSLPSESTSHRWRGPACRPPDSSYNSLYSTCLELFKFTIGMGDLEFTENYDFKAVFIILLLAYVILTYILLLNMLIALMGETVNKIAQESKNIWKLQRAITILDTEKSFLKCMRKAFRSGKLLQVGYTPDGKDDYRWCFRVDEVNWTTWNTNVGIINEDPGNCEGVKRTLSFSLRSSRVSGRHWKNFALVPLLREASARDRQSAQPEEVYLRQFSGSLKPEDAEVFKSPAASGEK

[2] = system: ER stress response element (ESRE); test: ESRE luciferase reporter in transfected endothelial cells; format: cell-based; conditions: stimulated 24 hours
Description: The induction of UPR is mediated by the binding of transcription factors to an ER stress response element (ESRE) featured in the UPR (unfolded protein response) target genes. Endothelial cells were transfected by means of lentiviral transfection using a reporter luciferase construct under the control of ESRE responsive elements. After two days, the transfected cells were stimulated for 24 hours with NOD or dopamine or NPD (N-pivaloyl dopamine, also referred to as N-[2-(3,4-dihydroxyphenyl)ethyl]tert-butylamide), or N-[2-(4-hydroxyphenyl)ethyl]octanamide (referred to as NOT), or medium (control). Chemiluminescence activity of the luciferase was then measured.

[3] = target: T1, protein disulfide isomerase (PDI) (Homo sapiens, UniProt P07237); test: ProteoStat PDI assay kit, fluorescence-based; format: biochemical; conditions: serial dilutions, excitation about 500 nm, emission about 603 nm
T1 construct: purchased
T1 sequence (P07237 18-508): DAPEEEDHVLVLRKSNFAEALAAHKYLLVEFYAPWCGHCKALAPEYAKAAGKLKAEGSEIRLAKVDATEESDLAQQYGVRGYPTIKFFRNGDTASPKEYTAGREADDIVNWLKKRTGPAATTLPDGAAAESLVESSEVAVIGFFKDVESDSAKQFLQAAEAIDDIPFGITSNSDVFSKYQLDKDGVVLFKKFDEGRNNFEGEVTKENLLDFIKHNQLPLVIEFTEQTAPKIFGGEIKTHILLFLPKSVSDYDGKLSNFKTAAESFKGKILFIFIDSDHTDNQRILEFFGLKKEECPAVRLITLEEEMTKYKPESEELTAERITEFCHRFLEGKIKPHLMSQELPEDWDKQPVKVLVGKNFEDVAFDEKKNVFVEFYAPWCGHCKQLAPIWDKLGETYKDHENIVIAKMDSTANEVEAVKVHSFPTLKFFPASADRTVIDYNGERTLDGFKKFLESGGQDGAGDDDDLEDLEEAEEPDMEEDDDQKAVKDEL
Description: Modulation of PDI activity by NOD was examined by using a fluorescence-based commercially available ProteoStat™ PDI assay kit and according to the kit protocol. The protocol was applied to serial dilutions of NOD, which were measured for inhibition of PDI activity using a fluorescent microplate reader at an excitation setting of about 500 nm and an emission filter of about 603 nm.

Lewis rats [4] = test: Effect on body weight in ARF rat model; format: in vivo; conditions: kidneys clamped 45 min, continuous infusion 10 μL/h over 5 days, 40 μmmol/mL
Description: (§2) Kidneys of Lewis rats (n=8) were clamped for 45 min to induce acute renal failure (ARF). Afterwards the rats were treated with continuous infusions (10 μL/h over 5 days) of either saline, dopamine or N-octanoyl dopamine (NOD), using an osmotic minipump. The concentration of dopamine and NOD was 40 μmmol/mL. The rats' body weight was monitored for 5 days.

HO1 (heme oxygenase-1) = test: HO1 expression in HUVEC, immunoblot; format: cell-based, human; conditions: TNF-α 24 h, 100 μM compound
Description: (§3) The anti-inflammatory effects of A-NOD and NOD were examined, specifically as to their impact on TNF-α (tumour necrosis factor alpha) mediated VCAM-1 (vascular cell adhesion molecule 1) expression. Human umbilical vein endothelial cells (HUVEC) were cultured until confluence. Hereafter the cells were stimulated for 24 h with TNF-α in the presence or absence of 100 μM NOD or A-NOD. Cells that were not stimulated (M) served as control. Cells were harvested and lysed in Laemli buffer. Hereafter, 20 μL of the lysates were boiled and subjected to SDS-PAGE. The resulting gel was blotted on PVF membranes and the membrane was subsequently incubated overnight with TBS/Tween/5% dry milk powder to block unspecific binding. The upper part of the membrane was probed with an anti-VCAM-1 antibody and the lower part with an anti-HO1 antibody (heme oxygenase-1). After thoroughly washing the membrane was incubated with appropriate HRP conjugates, bands were visualized using chemoluminescence (shown in FIG. 7).

Lewis rats [5] = test: Effect on renal function (serum creatinine) in ARF rat model; format: in vivo; conditions: continuous infusion over 5 days, from day 1 vs saline and day 3 vs dopamine, P<0.05
Description: as §2, with “minipump” for “minipump. The concentration of dopamine”, “the same concentrations as in Example 3.” for “NOD was 40 μmmol/mL.”, “renal function, as measured by the serum creatinine concentration,” for “body weight”

VCAM-1 = test: TNF-α mediated VCAM-1 expression in HUVEC, immunoblot; format: cell-based, human; conditions: TNF-α 24 h, 100 μM compound
Description: as §3

TNF-α = TNF-α activity in renal tissue measured by PCR; format: in vivo, rat; conditions: ARF rats, P<0.01
Lewis rats [6] = test: Renal histology after ARF (ED1-cell infiltration, necrotic tubulus cells); format: in vivo, rat; conditions: in comparison with saline- and dopamine-treated rats
Text: The kidneys of the Lewis rats of examples 3 and 4 were harvested. The renal tissue was examined with regard to the infiltration by inflammatory ED1-cells and signs of necrotic tubulus cells.

Row | Structure (SMILES) | Relative fold-increase of transcription compared to untreated endothelial cells, 2ΔΔ Ct, MANF (MANF) [fold] | Relative fold-increase of transcription compared to untreated endothelial cells, 2ΔΔ Ct, HSPA5 (HSPA5) [fold] | Relative fold-increase of transcription compared to untreated endothelial cells, 2ΔΔ Ct, DDIT3 (DDIT3) [fold] | Relative fold-increase of transcription compared to untreated endothelial cells, 2ΔΔ Ct, HYOU1 (HYOU1) [fold] | LDH activity (LDH release, OD490) compared to untreated cell control (Md) [1] | further results
1 | CCCCCCCC(=O)NCCc1ccc(O)cc1 [NOT, N-[2-(4-hydroxyphenyl)ethyl]octanamide] | 1.08 | 0.94 | 1.12 | 1.26 | – | –
2 | CCCCCCCCNC(=O)c1cc(OC(C)=O)ccc1OC(C)=O [BBNO] | 0.96 | 1.08 | 3.74 | 4.72 | – | –
3 | CC(C)(C)C(=O)NCCc1ccc(O)c(O)c1 [NPD, N-[2-(3,4-dihydroxyphenyl)ethyl]tert-butylamide] | – | – | – | – | significantly lower | –
4 | CCCCCCCC(=O)NCCc1ccc(O)c(O)c1 [NOD, N-octanoyl dopamine] | 4.53 | 11.40 | 37.80 | 5.17 | significantly lower | UPR gene transcription under hypoxic conditions (UPR target genes; hypoxic): significantly higher levels of transcription; UPR gene transcription under normoxic conditions (UPR target genes; normoxic): only NOD induced UPR gene transcription; action on TRPV-1-receptors (TRPV-1-receptors): agonist; ESRE-mediated transcription (luciferase chemiluminescence) [2]: strongly induce ESRE-mediated transcription; inhibition of PDI activity [3]: inhibits PDI in a dose-dependent manner; change in body weight before and after the ARF (percent of original body weight) (Lewis rats [4]): no significant change; also recorded: not significantly different from 100%; anti-HO1 antibody binding (HO1 (heme oxygenase-1)): showed anti-HO1 antibody binding; renal function as measured by serum creatinine concentration (Lewis rats [5]): significantly improved renal function; anti-VCAM-1 antibody binding (TNF-α mediated VCAM-1 expression) (VCAM-1): in the absence of A-NOD or NOD showed strong anti-VCAM-1 antibody binding in comparison to the cells co-treated with A-NOD or NOD; TNF-α activity in the renal tissue as measured by PCR (TNF-α): significantly reduced; necrotic tissue in kidney (Lewis rats [6]): less necrotic tissue; number of inflammatory ED1-cells in renal tissue (Lewis rats [6]; P<0.01): significantly reduced number of ED1-cells
5 | NCCc1ccc(O)c(O)c1 [dopamine, 4-(2-aminoethyl)benzene-1,2-diol] | – | – | – | – | – | body weight lost due to the ARF (Lewis rats [4]; osmotic minipump): ~11%
6 | CCCCCCCC(=O)NCCc1ccc(OC(C)=O)c(OC(C)=O)c1 [A-NOD, N-(3,4-bisacetoxyphenylethyl)octanamide] | – | – | – | – | significantly lower | ESRE-mediated transcription (luciferase chemiluminescence) [2]: did not significantly induce transcription; anti-HO1 antibody binding (HO1 (heme oxygenase-1)): showed anti-HO1 antibody binding; anti-VCAM-1 antibody binding (TNF-α mediated VCAM-1 expression) (VCAM-1): in the absence of A-NOD or NOD showed strong anti-VCAM-1 antibody binding in comparison to the cells co-treated with A-NOD or NOD
7 | CCCCNC(=O)c1cc(OC(C)=O)ccc1OC(C)=O [BBNB] | 0.99 | 0.65 | 0.90 | 0.84 | – | –
8 | CC(=O)Oc1ccc(OC(C)=O)c(C(=O)O)c1 [BB] | 1.03 | 0.60 | 1.01 | 0.90 | – | –
